Consider eleven molecules from US10154667B2, “Broadleaf crop control with 6-arylpicoline carboxylic acids, 2-arylpyrimidine carboxylic acids, or salts or esters thereof” (Dow AgroSciences LLC, priority 2013, dated 2018).

The structures appear in SMILES notation. Where two headings read alike, the source gives them in different places.

What all share (assay type): in vivo, Glycine max
Test [1] relates to ROUNDUP READY soybeans (GLXMA). Put plainly: Field evaluation with various herbicides, 46 days after treatment. The note with it: for % Crop Control: 46 Days After Treatment. From the text:
The average percent visual control of ROUNDUP READY® soybeans (GLXMA) 46 days after treatment with various herbicides with standard formulation in comparison with compound of Formula (IV) at specified rates are provided in Table 6 below. The data was the result of conducting factorial replicated field trials (4 trials) by applying the compositions at a spray pressure of 300 kPa and a spray volume of 200 L/ha. The treated plots and control plots were visually rated blind at the specified dates after application. Ratings were based on a scale of 0-100%, as discussed above, wherein 0% indicates complete growth of the undesired vegetation and 100% indicates complete prevention/eradication of the undesired vegetation.

Test [2] deals with ROUNDUP READY soybeans (GLXMA). Put plainly: Field evaluation with various herbicides, 30 days after treatment. The note with it: 30 Days After Treatment. From the text: The data was the result of conducting factorial replicated field trials (3 trials) by applying the compositions at a spray pressure of 300 kPa and a spray volume of 200 L/ha. The treated plots and control plots were visually rated blind at the specified dates after application. Ratings were based on a scale of 0-100%, as discussed above, wherein 0% indicates complete growth of the undesired vegetation and 100% indicates complete prevention/eradication of the undesired vegetation.

Test [3] has as its system RoundUp Ready GLXMA (HT variety soybean). The test can be described thus: Greenhouse evaluation of broadleaf volunteer crop control, RoundUp ready soybean. The settings on record: Glycine max, 504 h, greenhouse, 2 to 3 leaf stage, after 21 days, 0 no injury, 100 complete kill, read-out: Average Percent Crop Control after Treatment, RoundUp Ready GLXMA. As to the method:
(§1) Test plants were grown in METRO-MIX® 360 (SunGro Horticulture, Bellevue, Wash.) in 132.7 square centimeters (cm^2) plastic pots for 7-21 days in a greenhouse with an approximate 15 hour (h) photoperiod which was maintained at about 23-29° C. during the day and 22-28° C. during the night. Plants were grown to the 2 to 3 leaf stage prior to applications. Both conventional soybean crops varieties, Maverick and Resnick, and herbicide resistant (HT) varieties AAD12, AAD1, and ROUNDUP® ready soybean crops were treated.
(§2) A weighed amount, determined by the highest rate to be tested, of each test compound was placed in a 25 milliliter (mL) glass vial and was dissolved in 4 mL of a 97:3 v/v (volume/volume) mixture of acetone and dimethyl sulfoxide (DMSO), which will be referred to as General Purpose Solvent (GPS), to obtain concentrated stock solutions. […] The concentrated stock solutions obtained were diluted with 20 mL of an aqueous mixture containing water, GPS, isopropyl alcohol, ATPLUS® 411F crop oil concentrate, and TRITON® X-155 surfactant in a 46:42:12:1.0:0.02 v/v ratio to obtain spray solutions containing the highest application rates. Additional application rates were obtained by serial dilution of 12 mL of the high rate solution into a solution containing 2 mL of 97:3 v/v (volume/volume) mixture of acetone and dimethyl sulfoxide (DMSO) and 10 mL of an aqueous mixture containing water, GPS, isopropyl alcohol, ATPLUS® 411F crop oil concentrate, and TRITON® X-155 surfactant in a 46:42:12:1.0:0.02 v/v ratio to obtain 1/2X, 1/4X, 1/8X and 1/16X rates of the high rate (X). Compound requirements are based upon a 12 mL application volume at a rate of 187 L/ha. Formulated compounds were applied to the plant material with an overhead Mandel track sprayer equipped with 8002E nozzles calibrated to deliver 187 L/ha over an application area of 0.503 square meters (m^2) at a spray height of 18 inches (43 cm) above the average plant canopy height. Control plants were sprayed in the same manner with the solvent blank. The treated plants and control plants were placed in a greenhouse as described above and watered by sub-irrigation to prevent wash-off of the test compounds. After 21 days, the condition of the test plants as compared with that of the control plants was determined visually and scored on a scale of 0 to 100 percent where 0 corresponds to no injury and 100 corresponds to complete kill, and results are listed in Table 1 along with active ingredients and their respective formulations. Each score in Table 1 represents an average obtained from results of three representative experiments.
(§3) Additional formulations with different 6-arylpicolinates were tested in the greenhouse on Maverick and RoundUp-ready soybean crops using the procedure described above. Each score in Table 2 represents an average obtained from results of three representative experiments.

In test [4] the test system is Maverick GLXMA (conventional soybean). The test can be described thus: Greenhouse evaluation of broadleaf volunteer crop control, Maverick soybean. The settings on record: Glycine max, 504 h, read-out: Average Percent Crop Control after Treatment, Maverick GLXMA. As for the experimental part: as §1, §2, §3
The subject of test [5] is AAD1 GLXMA (HT variety soybean). The test can be described thus: Greenhouse evaluation of broadleaf volunteer crop control, AAD1 soybean. The note with it: 2 to 3 leaf stage, after 21 days, 0 no injury, 100 complete kill. As for the experimental part: as §1, §2
For test [6], the system named is Resnick GLXMA (conventional soybean). Put plainly: Greenhouse evaluation of broadleaf volunteer crop control, Resnick soybean. The settings on record: 2 to 3 leaf stage, after 21 days, 0 no injury, 100 complete kill. As to the method:
as §1, §2

For test [7], the system named is AAD12 GLXMA (HT variety soybean). Put plainly: Greenhouse evaluation of broadleaf volunteer crop control, AAD12 soybean. The settings on record: 2 to 3 leaf stage, after 21 days, 0 no injury, 100 complete kill. As for the experimental part: as §1, §2

As to `CNC.O=C(O)COc1ccc(Cl)cc1Cl` [2,4-D-dma], the “% Crop Control” value in test [1] (1300 g ai/Ha) amounted to 97.3%.
Consider `O=C(O)c1nc(Cl)ccc1Cl` [Clopyralid], for which the “% Crop Control” value in test [1] (54 g ai/Ha) is recorded as 93.8%.
Turning to `C#CCN1C(=O)COc2cc(F)c(N3C(=O)C4=C(CCCC4)C3=O)cc21` [Flumioxazin], the “% Crop Control” value in test [1] (25 g ai/Ha) was 0%.
As to `Nc1c(Cl)c(F)nc(OCC(=O)O)c1Cl` [Fluroxypyr], in test [1] (200 g ai/Ha), the “% Crop Control” value was 100%.
`COc1c(Cl)ccc(-c2cc(N)c(Cl)c(C(=O)O)n2)c1F` [Formula (IV)]: in test [1] (17 g ai/Ha), the “% Crop Control” value is reported as 93%. The “herbicidal activity in genetically engineered crops as compared to other commercially known herbicides” value in test [1] (RoundUp Ready soybeans) is “comparable or superior”.
Take `COc1nc(C)nc(NC(=O)NS(=O)(=O)c2cc(I)ccc2C(=O)O)n1` [Iodosulfuron]: in test [1] (3.5 g ai/Ha), the “% Crop Control” value is listed as 90%.
Turning to `COc1nc(C)nc(=NC(=O)NS(=O)(=O)c2ccccc2C(=O)O)[nH]1` [Metsulfuron], the “% Crop Control” value in test [2] (6 g ai/Ha + 1% J'Oil) is on record as 96%; in test [2] (6 g ai/Ha), 89.3%; in test [1] (6 g ai/Ha), 98.3%.
For the molecule `C[n+]1ccc(-c2cc[n+](C)cc2)cc1` [Paraquat], the entries for the “% Crop Control” value in test [2] (300 g ai/Ha) and in test [1] (300 g ai/Ha) were 61.7% and 85%, respectively.
For `COc1cc(OC)n2nc(NS(=O)(=O)c3c(C(F)(F)F)ccnc3OC)nc2n1` [Pyroxsulam], the “% Crop Control” value in test [1] (18 g ai/Ha) is 98.3%.
Consider `COc1c(Cl)ccc(-c2nc(C(=O)O)c(Cl)c(N)c2F)c1F` [drawing 11], for which the pest or weed control at 2.2 g/ha was 83% in test [3] (2.2 g ae/ha) and 95% in test [4] (2.2 g ae/ha, greenhouse, 2 to 3 leaf stage, after 21 days, 0 no injury, 100 complete kill). For the same molecule, the pest or weed control at 4.4 g/ha in test [3] (4.4 g ae/ha) stood at 93%; in test [4] (4.4 g ae/ha, greenhouse, 2 to 3 leaf stage, after 21 days, 0 no injury, 100 complete kill), 100%. The pest or weed control at 8.75 g/ha in test [3] (8.75 g ae/ha) is 100%; in test [4] (8.75 g ae/ha, greenhouse, 2 to 3 leaf stage, after 21 days, 0 no injury, 100 complete kill), 100%. The pest or weed control at 17.5 g/ha in test [3] (17.5 g ae/ha) was determined as 100%; in test [4] (17.5 g ae/ha, greenhouse, 2 to 3 leaf stage, after 21 days, 0 no injury, 100 complete kill) it was 100%. For the same molecule, the pest or weed control at 1.1 g/ha in test [4] (1.1 g ae/ha, greenhouse, 2 to 3 leaf stage, after 21 days, 0 no injury, 100 complete kill) turned out to be 87%. The “Average Percent Crop Control after Treatment, AAD1 GLXMA” value in test [5] (2.2 g ae/ha) was determined as 87%; in test [5] (4.4 g ae/ha) it was 100%; in test [5] (8.75 g ae/ha), 100%; in test [5] (17.5 g ae/ha), 100%. Further, the “Average Percent Crop Control after Treatment, Resnick GLXMA” value was determined as 83% in test [6] (1.1 g ae/ha); 92% in test [6] (2.2 g ae/ha); 100% in test [6] (4.4 g ae/ha); 100% in test [6] (8.75 g ae/ha); 100% in test [6] (17.5 g ae/ha). The “Average Percent Crop Control after Treatment, AAD12 GLXMA” value in test [7] (1.1 g ae/ha) is recorded as 85%; in test [7] (2.2 g ae/ha), 93%; in test [7] (4.4 g ae/ha) it was 100%; in test [7] (8.75 g ae/ha), 100%; in test [7] (17.5 g ae/ha) it was 100%.
`COc1c(Cl)ccc(-c2cc(N)c(Cl)c(C(=O)[O-])n2)c1F.[K+]` [drawing 12]: in test [4], the pest or weed control at 1.1 g/ha stood at 97%. For the same molecule, the “Average Percent Crop Control after Treatment, AAD1 GLXMA” value in test [5] (1.1 g ae/ha), in test [5] (2.2 g ae/ha), in test [5] (4.4 g ae/ha), in test [5] (8.75 g ae/ha) and in test [5] (17.5 g ae/ha) was 100% throughout. Besides, the “Average Percent Crop Control after Treatment, Resnick GLXMA” value in test [6] (1.1 g ae/ha) is listed as 99%; in test [6] (2.2 g ae/ha), 100%; in test [6] (4.4 g ae/ha), 100%; in test [6] (8.75 g ae/ha), 100%; in test [6] (17.5 g ae/ha), 100%. Besides, the “Average Percent Crop Control after Treatment, AAD12 GLXMA” value in test [7] (1.1 g ae/ha), in test [7] (2.2 g ae/ha), in test [7] (4.4 g ae/ha), in test [7] (8.75 g ae/ha) and in test [7] (17.5 g ae/ha) was 100% in each case.
